{"source": "ChEMBL document CHEMBL5096151", "about": "“Phytocannabinoid Pharmacology: Medicinal Properties of Cannabis sativa Constituents Aside from the \"Big Two\"” (J Nat Prod, 2021)", "key": {"Cannabinoid receptor 1 [1]": {"target": "Cannabinoid receptor 1 (Mus musculus, UniProt P47746)", "sequence (P47746 whole entry)": "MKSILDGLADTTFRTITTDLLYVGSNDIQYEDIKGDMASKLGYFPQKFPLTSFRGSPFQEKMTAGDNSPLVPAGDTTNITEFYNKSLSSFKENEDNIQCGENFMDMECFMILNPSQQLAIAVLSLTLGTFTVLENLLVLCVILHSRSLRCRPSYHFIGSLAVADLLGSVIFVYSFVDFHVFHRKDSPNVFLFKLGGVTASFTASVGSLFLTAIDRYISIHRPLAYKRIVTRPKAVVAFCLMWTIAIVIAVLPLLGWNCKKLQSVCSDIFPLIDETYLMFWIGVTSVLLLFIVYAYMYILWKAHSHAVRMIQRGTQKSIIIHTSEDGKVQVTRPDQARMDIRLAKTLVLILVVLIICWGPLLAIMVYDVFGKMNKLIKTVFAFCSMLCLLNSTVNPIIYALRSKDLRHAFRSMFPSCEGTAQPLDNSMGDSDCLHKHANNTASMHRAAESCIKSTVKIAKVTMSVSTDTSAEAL", "assay": "Agonist activity at CB1 receptor in albino MF1 mouse vas deferens assessed as inhibition of electrically evoked vas deferens contraction by incubated for 13 mins followed by electrical stimulation for 2 mins", "format": "functional"}, "[2]": {"target": "Transient receptor potential cation channel subfamily V member 5 (Homo sapiens, UniProt Q9NQA5)", "assay": "Inhibition of TRPV5 channel (unknown origin) by Patch-clamp assay"}, "Cannabinoid receptor 2 [3]": {"target": "T1, Cannabinoid receptor 2 (Homo sapiens, UniProt P34972)", "T1 sequence (P34972 whole entry)": "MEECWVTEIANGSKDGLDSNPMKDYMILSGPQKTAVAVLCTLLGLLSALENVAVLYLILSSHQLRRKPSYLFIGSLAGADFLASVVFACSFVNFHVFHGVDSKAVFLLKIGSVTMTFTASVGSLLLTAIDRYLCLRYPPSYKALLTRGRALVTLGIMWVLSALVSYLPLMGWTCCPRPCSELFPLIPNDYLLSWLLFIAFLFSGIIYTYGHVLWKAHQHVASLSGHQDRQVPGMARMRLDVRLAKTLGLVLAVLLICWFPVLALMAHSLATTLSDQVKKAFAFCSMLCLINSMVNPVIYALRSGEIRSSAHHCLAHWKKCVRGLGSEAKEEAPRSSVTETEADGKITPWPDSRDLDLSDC", "assay": "Agonist activity at CB2 receptor (unknown origin) expressed in CHO cell membranes assessed as increase in [35S]GTPgammaS binding incubated for 60 mins by liquid scintillation spectrometry analysis", "format": "functional, Membrane"}, "[4]": {"target": "T2, G-protein coupled receptor 55 (Homo sapiens, UniProt Q9Y2T6)", "T2 sequence (Q9Y2T6 whole entry)": "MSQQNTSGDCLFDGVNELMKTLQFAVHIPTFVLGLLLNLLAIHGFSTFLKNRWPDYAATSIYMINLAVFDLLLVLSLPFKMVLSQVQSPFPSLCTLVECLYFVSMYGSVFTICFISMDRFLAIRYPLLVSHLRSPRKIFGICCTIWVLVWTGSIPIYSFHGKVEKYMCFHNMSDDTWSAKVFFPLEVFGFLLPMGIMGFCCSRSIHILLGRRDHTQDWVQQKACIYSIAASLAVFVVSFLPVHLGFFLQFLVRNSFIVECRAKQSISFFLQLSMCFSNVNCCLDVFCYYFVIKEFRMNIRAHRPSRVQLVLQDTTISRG", "assay": "Antagonist activity at GPR55 (unknown origin) expressed in HEK293 cells assessed as LPI-stimulated ERK1/2 phosphorylation", "format": "functional, cell-based"}, "Cannabinoid receptor 2 [5]": {"target": "T1, Cannabinoid receptor 2", "assay": "Agonist activity at human CB2 receptor transfected in CHO cells assessed as inhibition of cyclic AMP production", "format": "functional, cell-based"}, "[6]": {"target": "5-hydroxytryptamine receptor 1A (Rattus norvegicus, UniProt P19327)", "sequence (P19327 whole entry)": "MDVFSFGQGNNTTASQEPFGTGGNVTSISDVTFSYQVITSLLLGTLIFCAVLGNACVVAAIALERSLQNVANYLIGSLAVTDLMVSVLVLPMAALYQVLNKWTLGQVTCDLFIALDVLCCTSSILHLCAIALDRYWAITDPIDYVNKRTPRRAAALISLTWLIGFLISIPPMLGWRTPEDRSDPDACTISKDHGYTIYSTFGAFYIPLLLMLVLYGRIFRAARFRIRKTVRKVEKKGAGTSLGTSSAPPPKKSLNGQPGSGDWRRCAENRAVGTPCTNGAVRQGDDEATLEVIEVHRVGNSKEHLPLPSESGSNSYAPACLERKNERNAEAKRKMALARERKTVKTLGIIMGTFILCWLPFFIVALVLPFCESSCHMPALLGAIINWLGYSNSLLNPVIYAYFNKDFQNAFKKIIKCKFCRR", "assay": "Displacement of [35S]GTPgammaS from 5HT1A in Sprague-Dawley rat brainstem incubated for 60 mins by radioligand binding assay", "format": "tissue-based"}, "[7]": {"target": "5-hydroxytryptamine receptor 1A (Homo sapiens, UniProt P08908)", "sequence (P08908 whole entry)": "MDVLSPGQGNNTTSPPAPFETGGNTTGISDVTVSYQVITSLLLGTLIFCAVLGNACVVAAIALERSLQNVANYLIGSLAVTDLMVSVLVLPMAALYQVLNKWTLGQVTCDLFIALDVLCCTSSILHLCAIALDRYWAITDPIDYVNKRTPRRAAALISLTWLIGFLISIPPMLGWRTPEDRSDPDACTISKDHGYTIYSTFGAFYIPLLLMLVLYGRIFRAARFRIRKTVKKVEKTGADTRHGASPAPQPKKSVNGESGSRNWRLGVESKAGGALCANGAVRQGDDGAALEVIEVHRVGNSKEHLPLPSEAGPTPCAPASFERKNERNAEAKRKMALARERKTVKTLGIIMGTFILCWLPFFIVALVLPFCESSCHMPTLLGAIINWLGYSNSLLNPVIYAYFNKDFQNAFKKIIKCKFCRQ", "assay": "Displacement of [35S]GTPgammaS from 5HT1A in […] incubated for 60 mins by radioligand binding assay", "format": "cell-based"}, "Cannabinoid receptor 2 [8]": {"target": "T1, Cannabinoid receptor 2", "assay": "Agonist activity at CB2 receptor (unknown origin) expressed in CHO cell membranes assessed as increase in [35S]GTPgammaS binding by measuring efficacy incubated for 60 mins by liquid scintillation spectrometry analysis relative to control", "format": "functional", "conditions": "Membrane, filed as agonist"}, "[9]": {"target": "T2, G-protein coupled receptor 55", "assay": "Antagonist activity at GPR55 (unknown origin) expressed in HEK293 cells assessed as LPI-stimulated ERK1/2 phosphorylation by measuring efficacy relative to control", "format": "functional, cell-based", "conditions": "filed as antagonist"}, "[10]": {"target": "5-hydroxytryptamine receptor 1A (Rattus norvegicus) (UniProt P19327)", "sequence (P19327 whole entry)": "as the sequence (P19327 whole entry) above", "assay": "Displacement of [35S]GTPgammaS from 5HT1A in Sprague-Dawley rat brainstem by measuring efficacy incubated for 60 mins by radioligand binding assay relative to control", "format": "tissue-based"}, "[11]": {"target": "5-hydroxytryptamine receptor 1A (Homo sapiens) (UniProt P08908)", "sequence (P08908 whole entry)": "as the sequence (P08908 whole entry) above", "assay": "Displacement of [35S]GTPgammaS from 5HT1A in […] by measuring efficacy incubated for 60 mins by radioligand binding assay relative to control", "format": "cell-based"}, "Cannabinoid receptor 2 [12]": {"target": "T1, Cannabinoid receptor 2", "assay": "Inhibition of human CB2 receptor", "format": "functional", "conditions": "concentration not given here"}, "[13]": {"target": "T3, Transient receptor potential cation channel subfamily V member 1 (Homo sapiens, UniProt Q8NER1)", "T3 sequence (Q8NER1 whole entry)": "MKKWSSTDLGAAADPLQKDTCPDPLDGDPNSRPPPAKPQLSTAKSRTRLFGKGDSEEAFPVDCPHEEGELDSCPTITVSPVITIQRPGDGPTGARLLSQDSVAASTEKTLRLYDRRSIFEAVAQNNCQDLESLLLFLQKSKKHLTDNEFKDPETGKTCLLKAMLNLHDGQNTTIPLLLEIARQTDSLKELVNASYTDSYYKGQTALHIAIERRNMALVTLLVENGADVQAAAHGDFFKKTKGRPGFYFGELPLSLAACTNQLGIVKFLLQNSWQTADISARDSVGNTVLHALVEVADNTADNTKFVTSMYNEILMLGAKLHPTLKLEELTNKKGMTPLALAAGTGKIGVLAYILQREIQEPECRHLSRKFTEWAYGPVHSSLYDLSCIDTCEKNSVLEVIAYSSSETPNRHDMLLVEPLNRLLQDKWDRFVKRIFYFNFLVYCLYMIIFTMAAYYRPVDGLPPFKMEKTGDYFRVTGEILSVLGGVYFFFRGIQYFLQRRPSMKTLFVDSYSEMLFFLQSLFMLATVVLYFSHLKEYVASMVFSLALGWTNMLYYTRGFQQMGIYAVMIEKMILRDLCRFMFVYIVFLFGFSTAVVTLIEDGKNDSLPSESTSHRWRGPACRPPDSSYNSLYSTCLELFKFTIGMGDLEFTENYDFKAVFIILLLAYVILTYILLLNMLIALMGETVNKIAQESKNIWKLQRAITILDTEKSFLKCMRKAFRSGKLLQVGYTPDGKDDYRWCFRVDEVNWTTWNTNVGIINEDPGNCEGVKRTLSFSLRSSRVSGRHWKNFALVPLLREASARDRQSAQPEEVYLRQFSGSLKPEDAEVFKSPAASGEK", "assay": "Agonist activity at ionomycin-stimulated TRPV1 (unknown origin) activation"}, "[14]": {"target": "T3, Transient receptor potential cation channel subfamily V member 1", "assay": "Agonist activity at ionomycin-stimulated TRPV1 (unknown origin) activation assessed as efficacy relative to control", "conditions": "filed as agonist"}, "[15]": {"target": "T3, Transient receptor potential cation channel subfamily V member 1", "assay": "Agonist activity at ionomycin-stimulated TRPV1 (unknown origin) channel desensitization in presence of capsaicin"}, "[16]": {"target": "T4, Transient receptor potential cation channel subfamily V member 2 (Homo sapiens, UniProt Q9Y5S1)", "T4 sequence (Q9Y5S1 whole entry)": "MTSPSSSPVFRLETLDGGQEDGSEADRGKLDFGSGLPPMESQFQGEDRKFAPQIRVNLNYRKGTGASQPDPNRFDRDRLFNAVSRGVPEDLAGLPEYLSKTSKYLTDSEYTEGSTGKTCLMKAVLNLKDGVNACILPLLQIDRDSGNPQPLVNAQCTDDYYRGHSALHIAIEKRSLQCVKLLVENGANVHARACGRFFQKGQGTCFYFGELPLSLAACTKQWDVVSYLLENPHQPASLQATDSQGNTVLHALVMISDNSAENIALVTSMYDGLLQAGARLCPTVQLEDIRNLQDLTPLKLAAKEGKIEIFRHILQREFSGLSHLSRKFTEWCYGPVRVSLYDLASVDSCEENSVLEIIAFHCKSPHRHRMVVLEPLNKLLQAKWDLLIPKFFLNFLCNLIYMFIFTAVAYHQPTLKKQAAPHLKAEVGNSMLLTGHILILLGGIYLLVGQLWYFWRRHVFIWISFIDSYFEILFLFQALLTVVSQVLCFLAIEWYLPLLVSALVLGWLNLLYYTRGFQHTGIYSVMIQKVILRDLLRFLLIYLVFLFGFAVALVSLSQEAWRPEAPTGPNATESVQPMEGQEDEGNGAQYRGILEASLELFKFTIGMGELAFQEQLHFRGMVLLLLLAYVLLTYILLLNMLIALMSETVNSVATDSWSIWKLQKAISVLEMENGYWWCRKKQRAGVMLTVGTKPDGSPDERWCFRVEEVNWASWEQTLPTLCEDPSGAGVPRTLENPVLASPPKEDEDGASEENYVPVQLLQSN", "assay": "Agonist activity at ionomycin-stimulated TRPV2 (unknown origin) activation"}, "[17]": {"target": "T5, Transient receptor potential cation channel subfamily V member 2 (Homo sapiens) (UniProt Q9Y5S1)", "T5 sequence (whole entry)": "T4 sequence (Q9Y5S1 whole entry)", "assay": "Agonist activity at ionomycin-stimulated TRPV2 (unknown origin) activation assessed as efficacy relative to control", "conditions": "filed as agonist"}, "[18]": {"target": "T4, Transient receptor potential cation channel subfamily V member 2", "assay": "Agonist activity at ionomycin-stimulated TRPV2 (unknown origin) channel desensitization in presence of lysophosphatidylcholine"}, "[19]": {"target": "T6, Transient receptor potential cation channel subfamily V member 3 (Homo sapiens, UniProt Q8NET8)", "T6 sequence (Q8NET8 whole entry)": "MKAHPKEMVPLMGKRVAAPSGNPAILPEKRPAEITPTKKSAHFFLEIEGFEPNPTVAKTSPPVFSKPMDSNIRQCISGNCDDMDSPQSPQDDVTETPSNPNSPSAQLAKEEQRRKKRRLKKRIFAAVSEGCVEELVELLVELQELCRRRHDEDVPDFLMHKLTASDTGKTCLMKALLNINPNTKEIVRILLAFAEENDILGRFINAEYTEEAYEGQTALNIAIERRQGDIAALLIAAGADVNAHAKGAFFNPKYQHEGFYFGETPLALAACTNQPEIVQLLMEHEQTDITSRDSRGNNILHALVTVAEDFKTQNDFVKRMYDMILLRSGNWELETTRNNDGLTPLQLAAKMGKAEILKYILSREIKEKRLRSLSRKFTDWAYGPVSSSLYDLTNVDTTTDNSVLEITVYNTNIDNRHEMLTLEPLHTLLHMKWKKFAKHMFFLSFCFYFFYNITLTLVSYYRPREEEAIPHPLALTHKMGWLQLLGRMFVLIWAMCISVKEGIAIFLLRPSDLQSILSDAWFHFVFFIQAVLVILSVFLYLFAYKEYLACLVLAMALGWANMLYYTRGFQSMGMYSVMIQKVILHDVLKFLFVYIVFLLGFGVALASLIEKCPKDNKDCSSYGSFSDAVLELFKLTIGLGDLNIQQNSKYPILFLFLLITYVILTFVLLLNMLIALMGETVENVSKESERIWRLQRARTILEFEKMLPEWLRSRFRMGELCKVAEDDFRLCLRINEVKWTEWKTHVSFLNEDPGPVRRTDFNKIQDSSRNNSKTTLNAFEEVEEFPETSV", "assay": "Agonist activity at ionomycin-stimulated TRPV3 (unknown origin) activation"}, "[20]": {"target": "T7, Transient receptor potential cation channel subfamily V member 3 (Homo sapiens) (UniProt Q8NET8)", "T7 sequence (whole entry)": "T6 sequence (Q8NET8 whole entry)", "assay": "Agonist activity at ionomycin-stimulated TRPV3 (unknown origin) activation assessed as efficacy relative to control", "conditions": "filed as agonist"}, "[21]": {"target": "T6, Transient receptor potential cation channel subfamily V member 3", "assay": "Agonist activity at ionomycin-stimulated TRPV3 (unknown origin) channel desensitization in presence of carvacrol"}, "[22]": {"target": "T8, Transient receptor potential cation channel subfamily V member 4 (Homo sapiens, UniProt Q9HBA0)", "T8 sequence (Q9HBA0 whole entry)": "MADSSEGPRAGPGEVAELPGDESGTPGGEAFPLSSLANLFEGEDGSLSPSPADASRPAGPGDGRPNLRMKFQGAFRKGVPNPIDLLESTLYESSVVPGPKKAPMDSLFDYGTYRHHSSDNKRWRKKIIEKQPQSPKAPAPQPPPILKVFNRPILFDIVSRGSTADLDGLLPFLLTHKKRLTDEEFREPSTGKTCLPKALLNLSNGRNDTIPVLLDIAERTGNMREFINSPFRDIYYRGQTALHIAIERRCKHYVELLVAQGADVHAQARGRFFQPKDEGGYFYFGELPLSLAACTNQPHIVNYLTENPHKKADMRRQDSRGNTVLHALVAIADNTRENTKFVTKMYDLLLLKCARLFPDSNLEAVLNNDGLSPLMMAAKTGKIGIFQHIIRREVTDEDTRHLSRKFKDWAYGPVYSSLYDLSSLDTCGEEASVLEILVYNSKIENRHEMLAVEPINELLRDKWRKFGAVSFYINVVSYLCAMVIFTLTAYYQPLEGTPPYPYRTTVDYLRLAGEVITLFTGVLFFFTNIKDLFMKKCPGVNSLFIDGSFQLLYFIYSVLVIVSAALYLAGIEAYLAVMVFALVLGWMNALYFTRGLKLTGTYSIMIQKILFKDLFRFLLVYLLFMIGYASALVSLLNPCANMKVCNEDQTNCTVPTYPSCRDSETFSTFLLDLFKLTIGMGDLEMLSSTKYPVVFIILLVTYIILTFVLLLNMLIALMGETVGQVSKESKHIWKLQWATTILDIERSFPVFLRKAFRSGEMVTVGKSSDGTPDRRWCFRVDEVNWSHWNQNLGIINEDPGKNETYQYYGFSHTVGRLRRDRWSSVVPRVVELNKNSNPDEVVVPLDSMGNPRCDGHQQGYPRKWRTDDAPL", "assay": "Agonist activity at ionomycin-stimulated TRPV4 (unknown origin) activation"}, "[23]": {"target": "T8, Transient receptor potential cation channel subfamily V member 4", "assay": "Agonist activity at ionomycin-stimulated TRPV4 (unknown origin) activation assessed as efficacy relative to control", "conditions": "filed as agonist"}, "[24]": {"target": "T8, Transient receptor potential cation channel subfamily V member 4", "assay": "Agonist activity at ionomycin-stimulated TRPV4 (unknown origin) channel desensitization in presence of 4alphaPDD"}, "[25]": {"target": "Transient receptor potential cation channel subfamily V member 6 (Homo sapiens, UniProt Q9H1D0)", "assay": "Inhibition of TRPV6 channel (unknown origin) by Patch-clamp assay"}, "[26]": {"target": "T9, Transient receptor potential cation channel subfamily A member 1 (Homo sapiens, UniProt O75762)", "T9 sequence (O75762 whole entry)": "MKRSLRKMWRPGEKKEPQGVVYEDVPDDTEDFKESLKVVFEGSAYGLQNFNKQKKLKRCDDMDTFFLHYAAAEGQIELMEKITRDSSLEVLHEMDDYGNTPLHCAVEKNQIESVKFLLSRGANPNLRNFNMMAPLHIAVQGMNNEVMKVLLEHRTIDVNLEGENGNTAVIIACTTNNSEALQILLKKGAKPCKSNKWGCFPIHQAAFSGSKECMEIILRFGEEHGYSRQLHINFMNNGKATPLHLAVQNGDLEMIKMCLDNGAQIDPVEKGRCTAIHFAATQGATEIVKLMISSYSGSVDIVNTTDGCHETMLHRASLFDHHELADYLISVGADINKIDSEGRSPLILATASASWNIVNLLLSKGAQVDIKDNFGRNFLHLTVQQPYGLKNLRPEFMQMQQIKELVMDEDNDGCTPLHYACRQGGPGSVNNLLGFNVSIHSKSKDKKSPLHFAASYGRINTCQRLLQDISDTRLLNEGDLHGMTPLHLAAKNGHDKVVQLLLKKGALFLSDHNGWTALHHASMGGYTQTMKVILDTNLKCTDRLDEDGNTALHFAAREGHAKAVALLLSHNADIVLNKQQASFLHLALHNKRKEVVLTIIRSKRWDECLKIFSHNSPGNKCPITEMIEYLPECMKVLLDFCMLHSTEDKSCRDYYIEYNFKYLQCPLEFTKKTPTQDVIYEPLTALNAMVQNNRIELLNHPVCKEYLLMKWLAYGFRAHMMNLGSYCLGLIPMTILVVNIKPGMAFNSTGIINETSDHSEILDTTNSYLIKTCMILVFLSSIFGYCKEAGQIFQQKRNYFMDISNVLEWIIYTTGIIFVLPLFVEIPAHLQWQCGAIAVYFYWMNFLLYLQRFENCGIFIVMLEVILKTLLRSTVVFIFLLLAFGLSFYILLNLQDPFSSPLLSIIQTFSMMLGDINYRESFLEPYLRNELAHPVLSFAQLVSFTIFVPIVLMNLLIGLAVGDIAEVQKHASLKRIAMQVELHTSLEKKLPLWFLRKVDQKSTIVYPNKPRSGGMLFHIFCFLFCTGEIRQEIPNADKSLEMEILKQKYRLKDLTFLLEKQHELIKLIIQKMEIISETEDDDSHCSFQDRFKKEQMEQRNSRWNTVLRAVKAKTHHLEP", "assay": "Agonist activity at TRPA1 (unknown origin) activation"}, "[27]": {"target": "T9, Transient receptor potential cation channel subfamily A member 1", "assay": "Agonist activity at TRPA1 (unknown origin) activation assessed as efficacy relative to control", "conditions": "filed as agonist"}, "[28]": {"target": "T9, Transient receptor potential cation channel subfamily A member 1", "assay": "Agonist activity at TRPA1 (unknown origin) channel desensitization in presence of isothiocyanate"}, "[29]": {"target": "T9, Transient receptor potential cation channel subfamily A member 1", "assay": "Agonist activity at TRPA1 (unknown origin) channel desensitization in presence of icilin"}, "[30]": {"target": "T3, Transient receptor potential cation channel subfamily V member 1", "assay": "Agonist activity at TRPV1 (unknown origin) ion channel"}, "[31]": {"target": "T9, Transient receptor potential cation channel subfamily A member 1", "assay": "Agonist activity at TRPA1 (unknown origin) ion channel"}, "[32]": {"target": "Transient receptor potential cation channel subfamily M member 8 (Homo sapiens, UniProt Q7Z2W7)", "assay": "Antagonist activity at TRPM8 (unknown origin) ion channel"}, "Cannabinoid receptor 1 [33]": {"target": "Cannabinoid receptor 1 (Homo sapiens, UniProt P21554)", "assay": "Binding affinity to CB1 (unknown origin) receptor assessed as inhibition constant"}}}
{"smiles": "CCCc1cc(O)c2c(c1)OC(C)(C)[C@@H]1CCC(C)=C[C@@H]21", "note": "[TETRAHYDROCANNABIVARIN]", "values": [{"measurement": "EC50", "setting": "Cannabinoid receptor 1 [1]", "result": 12700, "unit": "nM"}, {"measurement": "IC50", "setting": "[2]", "result": 4800, "unit": "nM"}, {"measurement": "EC50", "setting": "Cannabinoid receptor 2 [3]", "result": 98, "unit": "nM"}, {"measurement": "EC50", "setting": "[4]", "result": 880, "unit": "nM"}, {"measurement": "EC50", "setting": "Cannabinoid receptor 2 [5]", "result": 38, "unit": "nM"}, {"measurement": "EC50", "setting": "[6]", "result": 5.4, "unit": "nM"}, {"measurement": "EC50", "setting": "[7]", "result": 28, "unit": "nM"}, {"measurement": "Efficacy", "setting": "Cannabinoid receptor 2 [8]", "result": 40, "unit": "%"}, {"measurement": "Efficacy", "setting": "[9]", "result": 61, "unit": "%"}, {"measurement": "Efficacy", "setting": "[10]", "result": 35, "unit": "%"}, {"measurement": "Efficacy", "setting": "[11]", "result": 134, "unit": "%"}, {"measurement": "inhibition", "setting": "Cannabinoid receptor 2 [12]", "result": 0.143, "unit": "%"}, {"measurement": "EC50", "setting": "[13]", "result": 1500, "unit": "nM"}, {"measurement": "Efficacy", "setting": "[14]", "result": 68, "unit": "%"}, {"measurement": "IC50", "setting": "[15]", "result": 1300, "unit": "nM"}, {"measurement": "EC50", "setting": "[16]", "result": 4100, "unit": "nM"}, {"measurement": "Efficacy", "setting": "[17]", "result": 74, "unit": "%"}, {"measurement": "IC50", "setting": "[18]", "result": 800, "unit": "nM"}, {"measurement": "EC50", "setting": "[19]", "result": 3800, "unit": "nM"}, {"measurement": "Efficacy", "setting": "[20]", "result": 72, "unit": "%"}, {"measurement": "IC50", "setting": "[21]", "result": 3000, "unit": "nM"}, {"measurement": "EC50", "setting": "[22]", "result": 6400, "unit": "nM"}, {"measurement": "Efficacy", "setting": "[23]", "result": 60, "unit": "%"}, {"measurement": "IC50", "setting": "[24]", "result": 3200, "unit": "nM"}, {"measurement": "IC50", "setting": "[25]", "result": 9400, "unit": "nM"}, {"measurement": "EC50", "setting": "[26]", "result": 1500, "unit": "nM"}, {"measurement": "Efficacy", "setting": "[27]", "result": 243, "unit": "%"}, {"measurement": "IC50", "setting": "[28]", "result": 3070, "unit": "nM"}, {"measurement": "IC50", "setting": "[29]", "result": 870, "unit": "nM"}, {"measurement": "EC50", "setting": "[30]", "result": 200, "unit": "nM"}, {"measurement": "EC50", "setting": "[31]", "result": 70, "unit": "nM"}, {"measurement": "IC50", "setting": "[32]", "result": 20, "unit": "nM"}, {"measurement": "Ki", "setting": "Cannabinoid receptor 1 [33]", "result": 1000, "unit": "nM"}]}
